Earlier results in patent US20120171239A1, “Immunogenic Conjugates for Producing Immune Responses to Drugs of Abuse and Methods of Use” (priority 2009, published 2012).

System: D2
Settings: i.v. injection of 1.0 mg/kg cocaine, PET

## COC(=O)[C@H]1[C@@H](OC(=O)c2ccccc2)C[C@@H]2CC[C@H]1N2C [cocaine]
  reduction of FCP uptake: ≤ 40%
